Assays:
[1] = Solubility in the GtfC reaction mixture; type: physicochemical; details: 6 mM; final DMSO/ethanol 2/8%
Experimental: (§1) For this purpose, the test substance was resuspended in a DMSO/ethanol mixture (20/80%) and then diluted in the reaction mixture to the concentration to be tested (final concentration DMSO/ethanol 2/8%). The glucosyltransferase GtfC (0.3 μg, nzytech) was incubated in 100 mM potassium phosphate buffer, pH 6.0 with 30 mM sucrose for one hour at 37° C. in the presence of the test substances. As a positive control, the enzyme activity was measured in the presence of DMSO/ethanol (2/8%). […] For this purpose, the D-fructose and D-glucose assay kit from Megazyme (K-FRUGL) was used.
(§2) 9 independent reaction batches were measured in triplicate and the enzyme activity was normalized to the solvent control.

[2] = target: T1, glucosyltransferase C of S. mutans (Streptococcus mutans serotype c, UniProt P13470); experiment: Inhibition of glucosyltransferase GtfC activity (fructose release, K-FRUGL kit); type: biochemical; details: for inhibition of glucosyltransferase C activity: 30 mM sucrose, pH 6.0, 1 h, 37° C.; for remaining enzyme activity: normalized to solvent control, FIG. 2
T1 construct: purchased nzytech
T1 sequence (P13470 35-1455): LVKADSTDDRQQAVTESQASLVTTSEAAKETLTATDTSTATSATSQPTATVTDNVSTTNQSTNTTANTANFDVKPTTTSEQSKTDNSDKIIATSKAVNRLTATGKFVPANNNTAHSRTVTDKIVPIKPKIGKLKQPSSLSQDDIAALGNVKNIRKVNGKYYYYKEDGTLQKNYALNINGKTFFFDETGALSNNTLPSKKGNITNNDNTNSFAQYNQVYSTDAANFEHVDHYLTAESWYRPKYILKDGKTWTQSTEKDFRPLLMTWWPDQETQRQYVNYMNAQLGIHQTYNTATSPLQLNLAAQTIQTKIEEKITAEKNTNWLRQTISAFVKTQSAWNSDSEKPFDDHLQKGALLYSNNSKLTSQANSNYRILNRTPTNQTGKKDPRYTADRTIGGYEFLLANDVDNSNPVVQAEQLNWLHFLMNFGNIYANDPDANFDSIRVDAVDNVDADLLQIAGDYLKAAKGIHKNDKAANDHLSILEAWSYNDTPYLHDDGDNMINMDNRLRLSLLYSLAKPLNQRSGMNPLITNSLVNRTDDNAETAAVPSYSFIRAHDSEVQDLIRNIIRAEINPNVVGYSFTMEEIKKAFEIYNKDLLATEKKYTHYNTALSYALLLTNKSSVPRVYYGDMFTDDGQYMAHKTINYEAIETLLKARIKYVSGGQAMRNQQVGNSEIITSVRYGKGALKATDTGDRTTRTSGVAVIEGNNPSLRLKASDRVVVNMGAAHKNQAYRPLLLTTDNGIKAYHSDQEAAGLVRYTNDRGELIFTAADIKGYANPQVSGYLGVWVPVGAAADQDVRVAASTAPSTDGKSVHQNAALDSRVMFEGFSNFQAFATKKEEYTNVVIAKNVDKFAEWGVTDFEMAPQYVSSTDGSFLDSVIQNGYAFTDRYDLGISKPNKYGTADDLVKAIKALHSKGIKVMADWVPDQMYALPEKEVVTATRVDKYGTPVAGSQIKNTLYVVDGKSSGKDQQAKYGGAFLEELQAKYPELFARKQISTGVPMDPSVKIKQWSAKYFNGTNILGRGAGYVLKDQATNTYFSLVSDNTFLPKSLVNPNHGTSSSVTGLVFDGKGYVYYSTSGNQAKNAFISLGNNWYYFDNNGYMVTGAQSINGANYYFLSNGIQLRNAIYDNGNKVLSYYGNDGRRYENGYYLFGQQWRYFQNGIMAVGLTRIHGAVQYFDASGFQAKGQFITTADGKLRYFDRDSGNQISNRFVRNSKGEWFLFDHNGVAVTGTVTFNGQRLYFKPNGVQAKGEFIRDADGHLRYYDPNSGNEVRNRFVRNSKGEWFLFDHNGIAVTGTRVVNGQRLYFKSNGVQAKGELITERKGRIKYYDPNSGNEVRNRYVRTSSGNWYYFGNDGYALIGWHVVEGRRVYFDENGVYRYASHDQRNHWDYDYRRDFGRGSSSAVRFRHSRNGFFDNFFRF
Experimental: as §1
D-glucose and D-fructose are phosphorylated in the presence of adenosine-5-triphosphate (ATP) to glucose-6-phosphate (G-6-P) and fructose-6-phosphate (F-6-P) by the enzyme hexokinase (HK), producing adenosine 5′-diphosphate (ADP) (1), (2).
In the presence of the enzyme glucose-6-phosphate dehydrogenase (G6P-DH), G-6-P is oxidized to gluconate-6-phosphate by nicotinamide adenine dinucleotide (NADP^+). This produces reduced nicotinamide adenine dinucleotide phosphate (NADPH) (3).
The amount of NADPH formed in this reaction corresponds stoichiometrically to the amount of D-glucose. The absorption of NADPH is measured at 340 nm.
After completion of the reaction (3), F-6-P is converted to G-6-P by phosphoglucose isomerase (PGI) (4).
The G-6-P formed reacts in turn with NADP^+ to form gluconate-6-phosphate and NADPH, which leads to a further increase in absorption and correlates stoichiometrically with the amount of D-fructose.
as §2

[3] = target: T2, GtfC enzyme activity of S. mutans (Streptococcus mutans serotype c, UniProt P13470); experiment: GtfC activity with flavonoid derivative bound to hydroxyapatite; type: biochemical; details: bound to HAP as in Example 4; activity in supernatant; FIG. 4
T2 construct: purchased nzytech
T2 sequence (P13470 35-1455): as above
Experimental: ApiBisPhos UD was bound to HAP as described in Example 4 and then incubated with GtfC as described in Example 3. The HAP was then centrifuged off and the GtfC activity in the supernatant was then determined as described in Example 3. A similar procedure was followed with the further flavonoid derivative “ApiBisPhos EG” according to the invention. […] In other words, the further example of a flavonoid derivative according to the invention (“ApiBisPhos EG”) confirms the successful functioning of the present invention as the basis for achieving the advantage according to the invention based on the adhesion of the flavonoid derivative according to the invention to the tooth surface comprising hydroxyapatite, so that the flavonoid derivative can prevent or to a great extent inhibit the formation of biofilm causing dental diseases on the tooth surfaces treated with the flavonoid derivative in the long term.

S. mutans biofilm = S. mutans biofilm formation on saliva-coated hydroxyapatite disks (crystal violet); type: cell-based; details: HAP disks pretreated with 60 μl 10 mM, 60 min; 24 h culture at 37° C.; relative to solvent control
Experimental: In this example, it was investigated whether “ApibisPhos UD” has a significant influence on S. mutans-mediated biofilm formation using hydroxyapatite discs coated with saliva under conditions simulating the oral cavity.
For this purpose, sterile hydroxyapatite disks (Clarkson Chromatography Products Inc., Ø5 mm×2 mm) were coated with saliva (Lee Biosolutions, human pooled donors) as substrate for 60 minutes and then incubated with ApiBisPhos UD (60 μl; 10 mM in DMSO/ethanol mixture, 20/80%) for 60 minutes. After washing twice with DPBS, these pretreated hydroxyapatite disks were coated with S. mutans preculture (1.5×10^8 bacteria per ml in Balmelli broth) and cultured aerobically at 37° C. for 24 hours. The grown biofilm was fixed with 100% ethanol (30 min, 25° C.), stained with 0.06% (w/v) crystal violet (60 min, 25° C.) and the dye eluted with 30% (v/v) acetic acid quantified by measuring the absorbance at 570 nm. The measured values were set in relation to the solvent control (DMSO/ethanol mixture; 20/80%), i.e. without the use of ApibisPhos UD.

[4] = pH 6, read-out: inhibition of glucosyltransferase C activity

Compound	solubility [1]	inhibition at 1000 µM [2, 4]	inhibition at 3000 µM [2, 4]	inhibition of GtfC enzyme activity by substance bound to hydroxyapatite [3]	inhibition of glucosyltransferase C activity ([2]; 1 mM)	remaining enzyme activity ([2]; 1 mM)	inhibition of glucosyltransferase C activity ([2]; 3 mM)	remaining enzyme activity ([2]; 3 mM)	inhibition of glucosyltransferase C activity ([2]; 6 mM)	inhibition of biofilm formation on HAP surfaces (S. mutans biofilm)
O=c1cc(-c2ccc(O)cc2)oc2cc(O)cc(O)c12 [apigenin, reference compound]	insufficient solubility	38 ± 10%	53 ± 6%	–	–	–	–	–	–	–
Mixture of 4′-(11,11-bisphosphonoundecanoxy)-7,5-dihydroxyflavone and 7-(11,11-bisphosphonoundecanoxy)-4′, 5-dihydroxyflavone [ApiBisPhos UD]	–	–	–	inhibit the GtfC enzyme activity of S. mutans to a considerable degree	72±9%	less than 30%	90±4%	about 10%	99±2%	26±9%
Mixture of 4′-(12,12-bisphosphono-3,6,9-trioxadodecanoxy)-7,5-dihydroxyflavone and 7-(12,12-bisphosphono-3,6,9-trioxadodecanoxy)-4′,5-dihydroxyflavone [ApiBisPhos EG]	–	–	–	inhibit the GtfC enzyme activity of S. mutans to a considerable degree	–	–	–	–	–	–

Reference: patent US12590111B2, “Flavonoid derivative for treating dental caries” (Mühlbauer Technology GmbH, priority 2019, dated 2026)
